{"source": "paper PMC11684029", "about": "“Discovery of VU6024578/BI02982816: An mGlu1 Positive Allosteric Modulator with Efficacy in Preclinical Antipsychotic and Cognition Models” (Journal of Medicinal Chemistry, 2024)", "key": {"C57BL/6JRj mice": {"test_system": "C57BL/6JRj mice", "test": "N1 sensory gating, MK-801 induced deficit", "type": "in vivo", "details": "mouse, 10 mg/kg s.c.", "text": "We have also employed here event-related potentials (ERPs) and auditory-evoked oscillations, which serve as critical translational biomarkers, to assess the impact of our investigational drug on sensory processing and cognitive functions, providing valuable data on its potential efficacy in treating disorders like schizophrenia. Detailed description of the methodology, setup specifications and recording procedure and analysis of the 40 Hz auditory steady-state response (ASSR) protocol can be found in Schuelert et al.[27] […] Reduced entrainment of gamma oscillation reflects abnormalities in basic sensory registration and processing but is also associated with impaired higher cognitive functions.[32] ASSR can also be reliably impaired preclinically by different NMDA receptor antagonists.[33],[34] […] Abnormalities associated with the filtering or “gating” of sensory information are among the most consistent findings in schizophrenia research.[35] […]\nMice were placed in a plexiglass cage in an attenuated sound box and allowed to adapt to their environment for 20 min before subcutaneous administration of VU6024578 0.8, 4, and 10 mg/kg or vehicle (20% HP-β-CD in water). […] An infrared sensor on the Neurologger recorded the infrared trigger signals and trigger signals were saved in an individual trigger channel. […]"}, "brain homogenate binding": {"test": "brain homogenate binding", "type": "in vitro ADME, rat", "details": "fraction unbound"}, "mGlu1": {"biological_target": "mGlu1 (Mus musculus, UniProt P97772)", "sequence (P97772 21-1199)": "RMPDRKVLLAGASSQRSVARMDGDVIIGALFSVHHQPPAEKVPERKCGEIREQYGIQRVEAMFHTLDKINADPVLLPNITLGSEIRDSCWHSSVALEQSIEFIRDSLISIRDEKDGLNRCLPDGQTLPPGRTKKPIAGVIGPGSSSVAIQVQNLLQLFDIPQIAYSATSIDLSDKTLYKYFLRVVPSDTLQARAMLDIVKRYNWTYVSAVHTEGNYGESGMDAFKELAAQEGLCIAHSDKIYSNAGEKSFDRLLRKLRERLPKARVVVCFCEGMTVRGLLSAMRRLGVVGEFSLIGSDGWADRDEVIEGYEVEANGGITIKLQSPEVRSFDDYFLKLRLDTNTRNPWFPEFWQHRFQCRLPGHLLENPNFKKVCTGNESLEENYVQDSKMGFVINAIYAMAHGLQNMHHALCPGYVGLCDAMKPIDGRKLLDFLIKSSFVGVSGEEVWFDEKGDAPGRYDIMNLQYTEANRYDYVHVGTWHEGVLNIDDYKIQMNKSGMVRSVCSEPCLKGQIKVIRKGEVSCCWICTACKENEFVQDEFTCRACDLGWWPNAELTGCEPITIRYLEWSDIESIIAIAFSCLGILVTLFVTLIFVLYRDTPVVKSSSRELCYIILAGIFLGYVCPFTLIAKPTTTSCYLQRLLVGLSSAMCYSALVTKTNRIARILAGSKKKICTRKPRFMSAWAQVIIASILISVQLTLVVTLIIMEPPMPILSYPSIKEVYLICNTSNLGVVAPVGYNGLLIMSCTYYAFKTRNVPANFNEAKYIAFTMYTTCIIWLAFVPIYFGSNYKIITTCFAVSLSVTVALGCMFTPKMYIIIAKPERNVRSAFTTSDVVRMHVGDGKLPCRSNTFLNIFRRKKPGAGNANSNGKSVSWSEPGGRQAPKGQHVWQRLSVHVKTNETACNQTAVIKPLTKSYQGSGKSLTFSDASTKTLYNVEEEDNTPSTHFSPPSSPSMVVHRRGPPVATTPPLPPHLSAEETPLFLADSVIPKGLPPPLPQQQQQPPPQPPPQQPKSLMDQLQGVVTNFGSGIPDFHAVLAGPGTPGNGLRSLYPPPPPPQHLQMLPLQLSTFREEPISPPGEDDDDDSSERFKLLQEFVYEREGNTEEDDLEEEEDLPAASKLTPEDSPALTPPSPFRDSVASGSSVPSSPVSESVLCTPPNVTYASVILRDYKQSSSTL", "test": "mGlu1 PAM assay, mouse receptor", "type": "cell-based", "details": "n = 5", "procedure": "Over the course of the mGlu1 PAM program, 19d became an assay standard and was assayed multiple times, affording refined potency values.[20]"}, "[1]": {"test": "rat IV/PO PK crossover study", "type": "in vivo", "text": "Thus, 19d was a stable chemical entity in vivo. […] Overall, the rat PK and CNS penetration was supportive of in vivo work and progression down the development flow-chart."}, "Sprague–Dawley rats": {"test_system": "Sprague–Dawley rats", "test": "amphetamine-induced hyperlocomotion (rat)", "type": "in vivo", "procedure": "Here, administration of 0.75 mg/kg IP of amphetamine induced a robust hyperlocomotive state in rats (>1200 beam breaks), which was dose-dependently reversed by oral administration of 19d. […] Considering the longer time point for exposure and the results, mGlu1 has sufficient target coverage and PK/PD is established for this paradigm.[24]\nFigure 7 Rat amphetamine-induced hyperlocomotion and reversal by VU6024578 (19d). Amphetamine (0.75 mg/kg IP) induced robust hyperlocomotion, which was dose-dependently reversed by oral administration (10% tween 80) of 19d. TEXT PRINTED IN THE PICTURE: VU6024578: Mean % reversal: -0.2 ± 13.0 (1 mg/kg p.o. + Amphetamine 0.75 mg/kg s.c.); Mean % reversal: 31.6 ± 10.2 (3 mg/kg p.o. + Amphetamine 0.75 mg/kg s.c.); Mean % reversal: 31.4 ± 4.3 (5.6 mg/kg p.o. + Amphetamine 0.75 mg/kg s.c.); Mean % reversal: 41.8 ± 7.1 (10 mg/kg p.o. + Amphetamine 0.75 mg/kg s.c.)\nAdult male Sprague–Dawley rats placed into the activity chambers (Med Associates). Thirty minutes after placement in the chambers, the rats were administered VU6024578 (1–10 mg/kg p.o.) or vehicle. Sixty minutes later the rats were injected with amphetamine (0.75 mg/kg s.c. One ml/kg) or vehicle (saline) and placed back in the activity chambers for 90 min. The data for the studies were analyzed by a between-group 2 way analysis of variance for compound dose and time. Each dose group was compared with the vehicle control group. The calculations were performed and graphed using GraphPad Prism (version 4.03, GraphPad, La Jolla, CA). The AUC was analyzed by a 1-way ANOVA with a Dunnett’s post hoc test."}}, "data": [{"molecule": "Cn1nc(-c2ccnn2C)cc1CNC(=O)c1cc(-c2ccco2)ccc1Cl", "note": "[Compound 19d, 2-Chloro-N-((1,2′-dimethyl-1H,2’H-[3,3′-bipyrazol]-5-yl)methyl)-5-(furan-2-yl)benzamide]", "values": [{"measurement": "N1 sensory gating deficit induced by MK-801", "setting": "C57BL/6JRj mice", "value": "reversed"}, {"measurement": "rat fubrain", "setting": "brain homogenate binding", "value": 0.034}, {"measurement": "EC50", "setting": "mGlu1", "value": 0.027, "unit": "µM"}, {"measurement": "mouse mGlu1 Glumax", "setting": "mGlu1", "value": 89, "unit": "%"}, {"measurement": "mouse mGlu1 pEC50", "setting": "mGlu1", "value": "7.59 ± 0.07"}, {"measurement": "Vss", "setting": "[1]; 1 mg/kg IV", "value": 1.78, "unit": "L/kg"}, {"measurement": "plasma clearance (CLp)", "setting": "[1]; 1 mg/kg IV", "value": 8.3, "unit": "mL/min/kg"}, {"measurement": "t1/2", "setting": "[1]; 1 mg/kg IV", "value": 3.9, "unit": "h"}, {"measurement": "oral bioavailability (%F)", "setting": "[1]; PO 10% tween 80", "value": 100, "unit": "%"}, {"measurement": "Cmax", "setting": "[1]; PO arm", "value": 4150, "unit": "ng/mL"}, {"measurement": "Tmax", "setting": "[1]; PO arm", "value": 2, "unit": "h"}, {"measurement": "AUC", "setting": "[1]; plasma, PO arm", "value": 24600, "unit": "ng·h/mL"}, {"measurement": "Mean % reversal of AHL", "setting": "Sprague–Dawley rats; 1 mg/kg p.o.", "value": "-0.2 ± 13.0", "unit": "%"}, {"measurement": "Mean % reversal of AHL", "setting": "Sprague–Dawley rats; 3 mg/kg p.o.", "value": "31.6 ± 10.2", "unit": "%"}, {"measurement": "Mean % reversal of AHL", "setting": "Sprague–Dawley rats; 5.6 mg/kg p.o.", "value": "31.4 ± 4.3", "unit": "%"}, {"measurement": "Mean % reversal of AHL", "setting": "Sprague–Dawley rats; 10 mg/kg p.o.", "value": "41.8 ± 7.1", "unit": "%"}, {"measurement": "minimum effective dose (MED), AHL", "setting": "Sprague–Dawley rats; p.o.", "value": 3, "unit": "mg/kg"}]}]}
